{"source": "patent US11667615B2", "about": "“Certain (2S)-N-[(1S)-1-cyano-2-phenylethyl]-1,4-oxazepane-2-carboxamides as dipeptidyl peptidase 1 inhibitors” (AstraZeneca AB, priority 2014, dated 2023)", "origin": "cited, not measured here", "details": "QWBA studies; concomitant ultra-structural changes by electron microscopy", "data": [{"smiles": "CC(c1ccc(Cl)c(Cl)c1)N1N=C(N)CC1=O", "note": "(stereo not shown) [muzolimine]", "values": [{"measurement": "retention in the aorta", "value": "retained selectively in the aorta"}]}]}
